# According to patent US20030064954A1, “Cationic amphiphilic 1,4-dihydropyridine derivatives useful for delivery of nucleotide containing compounds” (priority 2000, published 2003):
# Values joined by “and” are separate entries in the source; they are usually repeats but may differ in a detail not shown here. Equal entries are not always repeated.
# Legend:
# [1] = test system: CV-1P (African monkey green kidney fibroblasts cells); assay: In vitro transfection of plasmid DNA, β-galactosidase activity per well; assay type: cell-based; settings: CVI-P; for transfection, result in words: entry spans the charge ratios 8-0.5
# Method: Transfer of plasmid DNA by various compounds was investigated by using CV-1P (African monkey green kidney fibroblasts cells) and D407 (human retinal pigment epithelial) cells.
# The cells were cultured in Dulbecco's modified Eagle's medium (DMEM, Gibco), supplemented with 10% fetal bovine serum (FBS), penicillin/streptomycin (100 units/ml and 100 μg/ml respectively) and 2 mM L-glutamine for D 407 cell line. Cell cultures were maintained at 37° C. in a 7% CO2/air incubator. The cells were collected, counted and seeded in growth medium (100 μl) into 96-well culture plate, 20 000 cells per well. One day later the medium was replaced with fresh medium without serum (150 μl)
# In the case of confluent CV1-P cells the medium (with of without serum) was changed on fourth day of cell growth before the transfection.
# The complexes at different derivative/DNA charge ratios for transfection procedure were prepared just before use in 50 mM MES—50 mM HEPES—75 mM NaCl buffer, pH 7.2 in separate 96 well plates. One hour after changing the serum-free medium with 10% serum the complexes were added to the cells at […]. Dose of DNA per well was 0.6 μg. After 5 h the complexes were removed, the cells were washed with PBS, and the normal growth medium was added. After 45 h of incubation at 37° C. the cells were lysed with 2% Triton X 100, twice deep frozen and the β-galactosidase activity in each well was determined spectrofotometrically with ELx800 automated microplate reader (Bio-Tex Instruments Inc., Winooski, Vt. USA) by monitoring the hydrolysis of o-nitrophenylgalactopyranoside (oNPG) at 405 nm. Purified β-galactosidase from E.coli was used to construct a standard curve and to calculate […] activity in the transfected cells. […] Transfection efficiencies are given as percentage in comparison to transfection efficiency of Lipofectin^R.
# [2] = test system: D407 (human retinal pigment epithelial) cells; assay: as above; assay type: cell-based; settings: D 407
# Method: The complexes at different derivative/DNA charge ratios for transfection procedure were prepared just before use in 50 mM MES—50 mM HEPES—75 mM NaCl buffer, pH 7.2 in separate 96 well plates. One hour after changing the serum-free medium with 10% serum the complexes were added to the cells at 370C. Dose of DNA per well was 0.6 μg. After 5 h the complexes were removed, the cells were washed with PBS, and the normal growth medium was added. After 45 h of incubation at 37° C. the cells were lysed with 2% Triton X 100, twice deep frozen and the β-galactosidase activity in each well was determined spectrofotometrically with ELx800 automated microplate reader (Bio-Tex Instruments Inc., Winooski, Vt. USA) by monitoring the hydrolysis of o-nitrophenylgalactopyranoside (oNPG) at 405 nm. Purified β-galactosidase from E.coli was used to construct a standard curve and to calculate 9-galactosidase activity in the transfected cells. […] Transfection efficiencies are given as percentage in comparison to transfection efficiency of Lipofectin^R.
# D 407 cells = assay: Cytotoxicity of amphiphile/DNA complexes, percentage of survived cells; assay type: cell-based, human; parameters: concentration or dose not given beside the values
# plasmid DNA = assay: DNA condensation/complexation, EtBr displacement assay; assay type: binding
# Method: The ability of the cationic amphiphiles to condense DNA was assessed with an EtBr displacement assay. Briefly, in 96 well plates plasmid DNA (0.6 μg per well) was reacted with 0.002% EtBr in 20 mM HEPES—150 mM NaCl buffer, pH 7.4 and fluorescence intensity was measured at 530 nm (excitation) and 590 nm (emission). Intercalation of EtBr molecules between the base pairs of the DNA double helix results in increased fluorescence signal. Immediately thereafter, the cationic liposomes were added to form complexes at different +/−charge ratios and the quenching of fluorescence intensity of EtBr was monitored. Condensation of DNA upon complexation with liposomes results in the displacement of EtBr from DNA and in decreased fluorescence signal. Fluorescence was measured using FL 500 microplate fluorescence reader (Bio-Tek Instruments Inc., Winooski, Vt., USA).
# The values are expressed as percentage of the maximum fluorescence signal when EtBr bound to DNA in the absence of an amphiphile. Each data point is from at least triplicate experiment ±S.D.
# CVI-P cells = assay: Cytotoxicity of amphiphile/DNA complexes, percentage of survived cells
# [3] = amphiphile/DNA +/− charge ratio 0.5
# [4] = amphiphile/DNA +/− charge ratio 1
# [5] = amphiphile/DNA +/− charge ratio 2
# [6] = amphiphile/DNA +/− charge ratio 4
# [7] = amphiphile/DNA +/− charge ratio 8
structure (smiles),measurement,setting,value
"CCCCCCCCCCCCOC(=O)C1=C(C)NC(C)=C(C(=O)OCCCCCCCCCCCC)C1c1ccc[n+](C)c1.I.[I-] [V, 3′,5′-Bis(dodecyloxycarbonyl)-1′,4′-dihydro-1,2′,6′-trimethyl-3,4′-bipyridinium iodide]",transfection efficiency,[1]; [3],"0,48 β-galactosidase units per well"
same,transfection efficiency,[1]; [4],"0,69 β-galactosidase units per well"
same,transfection efficiency,[1]; [5],"27,19 β-galactosidase units per well"
same,transfection efficiency,[1]; [6],"5,95 β-galactosidase units per well"
same,transfection efficiency,[1]; [7],"1,4 β-galactosidase units per well"
same,transfection efficiency,[2]; [3],"0,26 β-galactosidase units per well"
same,transfection efficiency,[2]; [4],"8,10 β-galactosidase units per well"
same,transfection efficiency,[2]; [5],"8,78 β-galactosidase units per well"
same,transfection efficiency,[2]; [6],"0,55 β-galactosidase units per well"
same,transfection efficiency,[2]; [7],"0,33 β-galactosidase units per well"
same,cytotoxicity as a percentage of survived cells,D 407 cells; [3],"85,27%"
same,cytotoxicity as a percentage of survived cells,D 407 cells; [4],"66,05%"
same,cytotoxicity as a percentage of survived cells,D 407 cells; [5],"55,61%"
same,cytotoxicity as a percentage of survived cells,D 407 cells; [6],"9,14%"
same,cytotoxicity as a percentage of survived cells,D 407 cells; [7],"0,28%"
same,"complexation, percentage of the maximum fluorescence signal when EtBr bound to DNA in the absence of an amphiphile",plasmid DNA; [3],"88,8%"
same,"complexation, percentage of the maximum fluorescence signal when EtBr bound to DNA in the absence of an amphiphile",plasmid DNA; [4],"80,33%"
same,"complexation, percentage of the maximum fluorescence signal when EtBr bound to DNA in the absence of an amphiphile",plasmid DNA; [5],"75,17%"
same,"complexation, percentage of the maximum fluorescence signal when EtBr bound to DNA in the absence of an amphiphile",plasmid DNA; [6],"71,93%"
same,"complexation, percentage of the maximum fluorescence signal when EtBr bound to DNA in the absence of an amphiphile",plasmid DNA; [7],"72,4%"
same,cytotoxicity as a percentage of survived cells,CVI-P cells; [3],"100,21%"
same,cytotoxicity as a percentage of survived cells,CVI-P cells; [4],"87,18%"
same,cytotoxicity as a percentage of survived cells,CVI-P cells; [5],"71,79%"
same,cytotoxicity as a percentage of survived cells,CVI-P cells; [6],"40,55%"
same,cytotoxicity as a percentage of survived cells,CVI-P cells; [7],"8,67%"
"CCCCCCCCCCOC(=O)C1=C(C[n+]2ccccc2)NC(C[n+]2ccccc2)=C(C(=O)OCCCCCCCCCC)C1c1ccccc1.[Br-].[Br-] [XXII, 1,1′-{[3,5-Bis(decyloxycarbonyl)-1,4-dihydro-4-phenylpyridine-2,6-diyl]dimethylene}bispyridinium dibromide]","transfection, result in words",[1],No signal
same,"complexation, percentage of the maximum fluorescence signal when EtBr bound to DNA in the absence of an amphiphile",plasmid DNA; [3],"77,8%"
same,"complexation, percentage of the maximum fluorescence signal when EtBr bound to DNA in the absence of an amphiphile",plasmid DNA; [4],"58,8%"
same,"complexation, percentage of the maximum fluorescence signal when EtBr bound to DNA in the absence of an amphiphile",plasmid DNA; [5],"48,1%"
same,"complexation, percentage of the maximum fluorescence signal when EtBr bound to DNA in the absence of an amphiphile",plasmid DNA; [6],"45,1%"
same,"complexation, percentage of the maximum fluorescence signal when EtBr bound to DNA in the absence of an amphiphile",plasmid DNA; [7],"43,5%"
same,cytotoxicity as a percentage of survived cells,CVI-P cells; [3],"95,71%"
same,cytotoxicity as a percentage of survived cells,CVI-P cells; [4],"87,2%"
same,cytotoxicity as a percentage of survived cells,CVI-P cells; [5],"84,01%"
same,cytotoxicity as a percentage of survived cells,CVI-P cells; [6],"78,2%"
same,cytotoxicity as a percentage of survived cells,CVI-P cells; [7],"46,74%"
"CCCCCCCCCCOC(=O)C1=C(C[N+](C)(C)CCCCCCCC)NC(C[N+](C)(C)CCCCCCCC)=C(C(=O)OCCCCCCCCCC)C1c1ccccc1.[Br-].[Br-] [XXVII, N,N′-{[3,5-Bis(decyloxycarbonyl)-1,4-dihydro-4-phenyl-pyridine-2,6-diyl]dimethylene}-N,N,N′,N′-tetramethyl-N,N′-dioctyldiammonium dibromide]",transfection efficiency,[1]; [3],"0,24 β-galactosidase units per well"
same,transfection efficiency,[1]; [4],"1,63 β-galactosidase units per well"
same,transfection efficiency,[1]; [5],"36,55 β-galactosidase units per well"
same,transfection efficiency,[1]; [6],"21,46 β-galactosidase units per well"
same,transfection efficiency,[1]; [7],"3,14 β-galactosidase units per well"
same,DNA condensing capacity (mark in Table 2),plasmid DNA,23a/XXVII*
same,cytotoxicity as a percentage of survived cells,CVI-P cells; [3],"105,03%"
same,cytotoxicity as a percentage of survived cells,CVI-P cells; [4],"98,37%"
same,cytotoxicity as a percentage of survived cells,CVI-P cells; [5],"88,41%"
same,cytotoxicity as a percentage of survived cells,CVI-P cells; [6],"24,62%"
same,cytotoxicity as a percentage of survived cells,CVI-P cells; [7],"13,46%"
"CCCCCCCCC=CCCCCCCCCOC(=O)C1=C(C[n+]2ccccc2)NC(C[n+]2ccccc2)=C(C(=O)OCCCCCCCCC=CCCCCCCCC)C1c1ccccc1.[Br-].[Br-] (stereo not drawn) [XXVI, 1,1′-[(3,5-Dioctadec-9′-enyloxycarbonyl-4-phenyl-1,4-dihydropyridine-2,6-diyl)dimethylene]bispyridinium dibromide]","transfection, result in words",[1],No signal
"Br.CCCCCCCCCCCCCCOC(=O)C1=C(C)NC(C)=C(C(=O)OCCCCCCCCCCCCCC)C1c1ccc[n+](CCCC)c1.[Br-] [XXI, 1-Butyl-1′,4′-dihydro-2′,6′-dimethyl-3′,5′-bis(tetradecyloxycarbonyl)-3,4′-bipyridinium bromide]","transfection, result in words",[1],No signal
"CCCCCCCCCCCCCCCC(=O)OCC(COC(=O)C1=C(C)NC(C)=C(C(=O)OCC(COC(=O)CCCCCCCCCCCCCCC)OC(=O)CCCCCCCCCCCCCCC)C1c1ccc[n+](C)c1)OC(=O)CCCCCCCCCCCCCCC.I.[I-] (stereo not drawn) [IX, 3′,5′-Bis [(2,3-dipalmitoyloxypropoxy)carbonyl]-1′,4′-dihydro-1,2′,6′-trimethyl-3,4′-bipyridinium iodide]","transfection, result in words",[1],No signal
same,"complexation, percentage of the maximum fluorescence signal when EtBr bound to DNA in the absence of an amphiphile",plasmid DNA; [3],"101,6% and 97,8%"
same,"complexation, percentage of the maximum fluorescence signal when EtBr bound to DNA in the absence of an amphiphile",plasmid DNA; [4],"101,6% and 97,5%"
same,"complexation, percentage of the maximum fluorescence signal when EtBr bound to DNA in the absence of an amphiphile",plasmid DNA; [5],"103,3% and 97,5%"
same,"complexation, percentage of the maximum fluorescence signal when EtBr bound to DNA in the absence of an amphiphile",plasmid DNA; [6],"97,8% and 98,4%"
same,"complexation, percentage of the maximum fluorescence signal when EtBr bound to DNA in the absence of an amphiphile",plasmid DNA; [7],"98,5% and 106,1%"
same,cytotoxicity as a percentage of survived cells,CVI-P cells; [3],"83,11% and 90,48%"
same,cytotoxicity as a percentage of survived cells,CVI-P cells; [4],"84,63% and 107,13%"
same,cytotoxicity as a percentage of survived cells,CVI-P cells; [5],"97,34% and 120,34%"
same,cytotoxicity as a percentage of survived cells,CVI-P cells; [6],"106,62% and 117,42%"
same,cytotoxicity as a percentage of survived cells,CVI-P cells; [7],"100,65% and 124,54%"
"CCCCCCCCCOC(=O)C1=C(C)NC(C)=C(C(=O)OCCCCCCCCC)C1c1ccc[n+](C)c1.I.[I-] [IV, 1′,4′-Dihydro-1,2′,6′-trimethyl-3′,5′-bis(nonyloxycarbonyl)-3,4′-bipyridinium iodide]","transfection, result in words",[1],No signal
CCCCCCCCCCCCCCCCOCCCOC(=O)C1=C(C)NC(C)=C(C(=O)OCCCOCCCCCCCCCCCCCCCC)C1c1ccc[n+](C)c1.[I-] [II],"transfection, result in words",[1],No signal
same,"complexation, percentage of the maximum fluorescence signal when EtBr bound to DNA in the absence of an amphiphile",plasmid DNA; [3],"92,2%"
same,"complexation, percentage of the maximum fluorescence signal when EtBr bound to DNA in the absence of an amphiphile",plasmid DNA; [4],"85,6%"
same,"complexation, percentage of the maximum fluorescence signal when EtBr bound to DNA in the absence of an amphiphile",plasmid DNA; [5],"77,2%"
same,"complexation, percentage of the maximum fluorescence signal when EtBr bound to DNA in the absence of an amphiphile",plasmid DNA; [6],"74,8%"
same,"complexation, percentage of the maximum fluorescence signal when EtBr bound to DNA in the absence of an amphiphile",plasmid DNA; [7],"72,4%"
same,cytotoxicity as a percentage of survived cells,CVI-P cells; [3],"111,42%"
same,cytotoxicity as a percentage of survived cells,CVI-P cells; [4],"101,24%"
same,cytotoxicity as a percentage of survived cells,CVI-P cells; [5],"102,9%"
same,cytotoxicity as a percentage of survived cells,CVI-P cells; [6],"79,08%"
same,cytotoxicity as a percentage of survived cells,CVI-P cells; [7],"99,23%"
